According to ChEMBL document CHEMBL4393710, “Discovery of Dioxino[2,3-f]quinazoline derivative VEGFR-2 inhibitors exerting significant antipro-liferative activity in HUVECs and mice” (Eur J Med Chem, 2019):

Experiments:
[1] = target: Vascular endothelial growth factor receptor 2 (Homo sapiens, UniProt P35968); experiment: Inhibition of human N-terminal GST-tagged VEGFR2 cytoplasmic domain (790 to 1356 residues) expressed in baculovirus expression system using Ulight-JAK-1(Tyr1023) peptide as substrate preincubated for 30 mins followed by substrate addition and measured after 60 mins by spectrometric method
Sequence of Vascular endothelial growth factor receptor 2 (P35968 whole entry, the tested form may be a part): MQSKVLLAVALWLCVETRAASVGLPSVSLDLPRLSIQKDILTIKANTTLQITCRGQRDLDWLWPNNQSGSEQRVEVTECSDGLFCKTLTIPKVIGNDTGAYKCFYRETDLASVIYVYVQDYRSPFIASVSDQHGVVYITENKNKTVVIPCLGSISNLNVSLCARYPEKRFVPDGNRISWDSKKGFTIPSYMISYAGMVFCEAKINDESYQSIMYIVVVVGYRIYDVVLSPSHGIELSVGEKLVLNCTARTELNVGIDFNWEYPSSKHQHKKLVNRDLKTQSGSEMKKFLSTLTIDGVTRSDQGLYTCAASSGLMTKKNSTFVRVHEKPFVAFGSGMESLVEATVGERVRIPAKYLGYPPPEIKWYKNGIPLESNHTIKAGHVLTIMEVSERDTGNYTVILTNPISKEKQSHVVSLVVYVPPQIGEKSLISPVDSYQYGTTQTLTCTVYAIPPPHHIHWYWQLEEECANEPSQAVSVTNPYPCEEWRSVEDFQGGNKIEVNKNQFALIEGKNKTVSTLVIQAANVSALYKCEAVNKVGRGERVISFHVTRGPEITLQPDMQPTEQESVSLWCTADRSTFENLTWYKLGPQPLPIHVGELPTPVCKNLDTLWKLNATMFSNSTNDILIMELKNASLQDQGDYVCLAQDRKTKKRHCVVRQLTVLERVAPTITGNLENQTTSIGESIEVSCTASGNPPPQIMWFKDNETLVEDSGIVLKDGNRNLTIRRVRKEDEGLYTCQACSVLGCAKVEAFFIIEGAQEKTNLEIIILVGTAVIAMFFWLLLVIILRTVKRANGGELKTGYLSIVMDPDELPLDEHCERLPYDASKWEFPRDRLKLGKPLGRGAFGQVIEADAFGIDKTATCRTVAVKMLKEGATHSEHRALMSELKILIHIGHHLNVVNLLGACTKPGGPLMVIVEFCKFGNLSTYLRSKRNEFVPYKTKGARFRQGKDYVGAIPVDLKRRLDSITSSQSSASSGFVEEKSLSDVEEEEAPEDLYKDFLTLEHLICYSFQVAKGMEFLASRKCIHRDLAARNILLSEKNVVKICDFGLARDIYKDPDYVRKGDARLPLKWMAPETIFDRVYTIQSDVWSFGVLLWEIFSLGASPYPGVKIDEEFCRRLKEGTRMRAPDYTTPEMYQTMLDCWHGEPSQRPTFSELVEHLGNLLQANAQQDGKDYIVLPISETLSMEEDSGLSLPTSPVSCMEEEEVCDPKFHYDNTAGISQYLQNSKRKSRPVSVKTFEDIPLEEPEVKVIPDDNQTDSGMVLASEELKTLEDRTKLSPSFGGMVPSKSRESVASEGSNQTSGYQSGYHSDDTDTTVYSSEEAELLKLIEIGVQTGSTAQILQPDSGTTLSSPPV

HEK293 = experiment: Antiproliferative activity against HEK293 cells incubated for 72 hrs by CCK8 assay; conditions: Homo sapiens, HEK293, 72 h
L02 = experiment: Antiproliferative activity against human LO2 cells incubated for 72 hrs by CCK8 assay; conditions: L02, 72 h
HUVEC = experiment: Inhibition of VEGF-induced cell proliferation of HUVEC incubated for 72 hrs by CCK8 assay; conditions: Homo sapiens
SMMC-7721 [2] = experiment: Antiproliferative activity against human SMMC7721 cells incubated for 72 hrs by CCK8 assay; format: functional, cell-based; conditions: SMMC-7721, 72 h
SMMC-7721 [3] = experiment: Antitumor activity against human SMMC7721 cells xenografted in nude mouse assessed as tumor volume at 60 mg/kg, po administered daily for 6 days and measured on day 6 (reference value: 1990.2 +/- 179.2 mm3); format: functional
SMMC-7721 [4] = experiment: Antitumor activity against human SMMC7721 cells xenografted in nude mouse assessed as tumor volume at 60 mg/kg, po administered daily for 6 days and measured on day 9 (reference value: 3005.8 +/- 225.3 mm3); format: functional
SMMC-7721 [5] = experiment: Antitumor activity against human SMMC7721 cells xenografted in nude mouse assessed as tumor growth inhibition at 60 mg/kg, po administered daily for 6 days and measured on day 6 relative to control; format: functional; conditions: SMMC-7721, po, 144 h, read-out: TGI
SMMC-7721 [6] = experiment: Antitumor activity against human SMMC7721 cells xenografted in nude mouse assessed as tumor growth inhibition at 60 mg/kg, po administered daily for 6 days and measured on day 9 relative to control; format: functional; conditions: SMMC-7721, po, read-out: TGI
[7] = Toxicity in nude mouse xenografted with human SMMC7721 cells assessed as mortality at 60 mg/kg, po administered daily for 6 days; format: organism-based; conditions: in vivo, 144 h
[8] = Toxicity in nude mouse xenografted with human SMMC7721 cells assessed as side effect at 60 mg/kg, po administered daily for 6 days; format: organism-based; conditions: in vivo, 144 h
[9] = Toxicity in nude mouse xenografted with human SMMC7721 cells assessed as change in body weight at 60 mg/kg, po administered daily for 6 days and measured every 3 days; format: organism-based; conditions: in vivo

| IC50 [1] [nM] | SMILES | IC50 (HEK293) [nM] | IC50 (L02) [nM] | IC50 (HUVEC) [nM] | further results |
| --- | --- | --- | --- | --- | --- |
| 1.5 | O=C(Nc1ccc(Oc2ncnc3cc(OCCCN4CCOCC4)c4c(c23)OCCO4)cc1)Nc1cc(C(F)(F)F)ccc1F | 994 | 1010 | 2.3 |  |
|  | COc1cccc(NC(=O)Nc2ccc(Oc3ncnc4cc(OC)c5c(c34)OCCO5)cc2)c1 | > 25000 | 34300 | 3 |  |
|  | COc1cc2nccc(Oc3ccc(NC(=O)NC4CC4)c(Cl)c3)c2cc1C(N)=O [LENVATINIB] |  |  | 3 |  |
| 1.5 | COc1cc2ncnc(Oc3ccc(NC(=O)Nc4cc(C(F)(F)F)ccc4F)cc3)c2c2c1OCCO2 | 2880 | 2190 | 1.7 |  |
|  | O=C(Nc1cc(C(F)(F)F)ccc1F)Nc1ccc(Oc2ncnc3cc(OCCCN4CCOCC4)c4c(c23)OCCO4)cc1Cl | 5180 | 5980 | 4 |  |
|  | O=C(Nc1ccc(Oc2ncnc3cc(OCCCN4CCOCC4)c4c(c23)OCCO4)cc1F)Nc1cc(C(F)(F)F)ccc1F | 1160 | 1510 | 4.7 |  |
| 1.7 | COCCOc1cc2ncnc(Oc3ccc(NC(=O)Nc4cc(C(F)(F)F)ccc4F)cc3)c2c2c1OCCO2 | 894 | 1160 | 1.1 |  |
|  | CC(C)Oc1cc2ncnc(Oc3ccc(NC(=O)Nc4cc(C(F)(F)F)ccc4F)cc3)c2c2c1OCCO2 | 3560 | 5180 | 4.2 |  |
| 3.4 | O=C(Nc1ccc(Oc2ncnc3cc(OCCCN4CCOCC4)c4c(c23)OCCO4)c(F)c1)Nc1cc(C(F)(F)F)ccc1F | 700 | 801 | 1.5 |  |

| SMILES | IC50 [1] [nM] | IC50 (HEK293) [nM] | IC50 (L02) [nM] | IC50 (HUVEC) [nM] | further results |
| --- | --- | --- | --- | --- | --- |
| COc1cc2ncnc(Oc3ccc(NC(=O)Nc4ccc(Cl)c(C(F)(F)F)c4)cc3)c2c2c1OCCO2 | 2.4 | 7540 | 3860 | 1.2 | IC50 (SMMC-7721 [2]): 376 nM; Activity (SMMC-7721 [3]): 14 mm3; Activity (SMMC-7721 [4]): 63.3 mm3; inhibition in vivo at 60 mg/kg (SMMC-7721 [5]): 133%; inhibition in vivo at 60 mg/kg (SMMC-7721 [6]): 118%; Activity [7]: Non-Toxic; Activity [8]: Non-Toxic; Activity [9]: Toxic |
